# Patent publication US20240067733A1, “COMPOSITIONS AND METHODS FOR TARGETING AND KILLING ALPHA-V BETA-3-POSITIVE CANCER STEM CELLS (CSCS) AND TREATING DRUG RESISTANT CANCERS” (THE REGENTS OF THE UNIVERSITY OF CALIFORNIA, priority 2017, published 2024)
# B1: etaracizumab: a humanized and affinity-matured form of LM609 (antibody, chains of the INN, looked up, V domains shown)
# VH: QVQLVESGGGVVQPGRSLRLSCAASGFTFSSYDMSWVRQAPGKGLEWVAKVSSGGGSTYYLDTVQGRFTISRDNSKNTLYLQMNSLRAEDTAVYYCARHLHGSFASWGQGTTVTVSS
# VL: EIVLTQSPATLSLSPGERATLSCQASQSISNFLHWYQQRPGQAPRLLIRYRSQSISGIPARFSGSGSGTDFTLTISSLEPEDFAVYYCQQSGSWPLTFGGGTKVEIK
# Tests used:
# PC9 ErlR cells = conditions: cells from erlotinib treated (ErlR) vs vehicle treated animal
# Method: (§1) Cells were plated in 96-well plates, and after appropriate treatments, the cells were incubated in MTT solution (Sigma, M2128, 0.5 mg/mL in growth media) for two hours at 37° C. Then, the MTT solution was removed, and the blue crystalline precipitate in each well was dissolved in DMSO. Visible absorbance of each well at 560 nm was quantified using a microplate reader.
# HCC827-ErlR = test system: HCC827-ErlR
# Method: as §1
# [1] = test system: tumor-associated macrophages (TAMs); experiment: Quantification of TAMs in xenograft tumor tissues; format: in vivo, nu/nu mice; conditions: erlotinib vs vehicle, after 50 days of treatment
# Method: TAMs were isolated from tumor tissues as previously described (4). Snap frozen tumor tissues were thawed, minced, and dissociated in HBSS containing collagenase IV (Sigma, C5138, 0.5 mg/mL), hyaluronidase (Sigma, H2654, 0.1 mg/mL), dispase 11 (Roche, 04942078001, 0.6 U/mL), and DNase IV (Millipore, 260913-10MU, 5 U/mL) at 37° C. for 15 minutes. Cell suspensions were filtered through 70 μm cell strainer and washed with PBS. Single cell suspensions (10^6 cells/100 μL in 5% BSA in PBS) were incubated with Mouse BD Fc Block™ (BD Biosciences, 553142, 1:50) for 10 minutes at 4° C. and fluorescently labeled antibodies, CD11b (eBioscience, 17-0112-81, 1:100), Ly-6G (eBioscience, 25-5931, 1:100), CD206 (BioRad, MCA2235PET), and MHC11 (BD Biosciences, 562928) for one hour at 4° C. Flow cytometry was performed on BD LSRFortessa™, and the ratio of TAMs (CD11b-positive, Ly-6G-negative), M1 (CD206-negative, MHC11-positive within TAMs), and M2 (non-M1 population within TAMs) in the tumor tissue was calculated using the flow cytometry analysis program FlowJo™ (Treestar).
# [2] = test system: HCC827 (β3−, GFP+, luciferase+) cells; experiment: Orthotopic lung adenocarcinoma model and CTC isolation; format: in vivo, nu/nu mice
# Method: The pre-treatment group mice were sacrificed in week 8 for CTC analysis. […] Whole blood (0.5 mL/mouse) was collected in EDTA tubes, and PBMCs including CTCs were isolated using Lymphoprep™ ([…] Technologies, 85415) and SepMate™ ([…] Technologies, 07801) following the manufacturer's protocol. Isolated cells were washed with PBS, plated on poly-L-Lysine (Sigma, P1399) coated 8-well chamber plates, fixed with 4% PFA (VWR, AA43368-9M), and stained with DAPI (Life Technologies, D1306, 1 μg/mL in 1% BSA in PBS), LM609 (5 μg/mL in 1% BSA in PBS), and a fluorescently-labeled secondary antibody (Thermo, A21235, 1:500). The cells were analyzed utilizing Nikon Eclipse C2™ confocal microscope (Nikon). CTCs were defined as DAPI and GFP double positive cells. The numbers of αvβ3-positive and -negative CTCs per mouse were counted. After sacrificing the mice, the tumor mass volume in the lungs were also measured utilizing an OV100™ fluorescence imaging system (Olympus).
# HCC827 (β3−) xenograft = experiment: Erlotinib resistant lung adenocarcinoma xenograft model (HCC827 subcutaneous); conditions: erlotinib-resistant tumors vs vehicle group
# Method: Briefly, HCC827 (5×10^6 tumor cells in 100 μl of RPMI) cells were subcutaneously injected to the right flank of female nu/nu mice (8-10 weeks old). Tumors were measured twice per week with calipers (tumor volume (mm 3)=length×width×width/2). […] Tumor tissues were divided into three pieces for snap freezing, freezing in OCT compound (VWR, 25608-930), or 10% formalin fixation (Fisher Scientific, 23-313095) for further analyses.
# Immunohistochemical staining was performed on unstained FFPE slides according to the manufacturers recommendations for the VECTASTAIN Elite ABC HRP Kit (Vector Laboratories, PK-6100). An anti-integrin β3 antibody (Cell Signaling, 13166, 1:200) and a biotinylated goat anti-rabbit antibody (Vector Laboratories, BA-1000, 1:200) were used. The stained tissues were imaged on NanoZoomer Slide Scanning System™ (Hamamatsu), and the β3-positive area fraction with respect to tumor tissue was calculated utilizing ImageJ (MH) (5).
# [3] = test system: PC9 (β3−) subcutaneous xenograft; experiment: PC9 subcutaneous xenograft treated with erlotinib; format: in vivo, mice; conditions: erlotinib n=1 vs vehicle n=1, measured weekly
# solid tumors = conditions: patients with solid tumors; cited from earlier work
# integrin αvβ3 = integrin αvβ3 (Homo sapiens, UniProt P05106+P06756); conditions: in vitro; cited from earlier work
# Sequence of integrin αvβ3 (P06756 31-889 limits assumed): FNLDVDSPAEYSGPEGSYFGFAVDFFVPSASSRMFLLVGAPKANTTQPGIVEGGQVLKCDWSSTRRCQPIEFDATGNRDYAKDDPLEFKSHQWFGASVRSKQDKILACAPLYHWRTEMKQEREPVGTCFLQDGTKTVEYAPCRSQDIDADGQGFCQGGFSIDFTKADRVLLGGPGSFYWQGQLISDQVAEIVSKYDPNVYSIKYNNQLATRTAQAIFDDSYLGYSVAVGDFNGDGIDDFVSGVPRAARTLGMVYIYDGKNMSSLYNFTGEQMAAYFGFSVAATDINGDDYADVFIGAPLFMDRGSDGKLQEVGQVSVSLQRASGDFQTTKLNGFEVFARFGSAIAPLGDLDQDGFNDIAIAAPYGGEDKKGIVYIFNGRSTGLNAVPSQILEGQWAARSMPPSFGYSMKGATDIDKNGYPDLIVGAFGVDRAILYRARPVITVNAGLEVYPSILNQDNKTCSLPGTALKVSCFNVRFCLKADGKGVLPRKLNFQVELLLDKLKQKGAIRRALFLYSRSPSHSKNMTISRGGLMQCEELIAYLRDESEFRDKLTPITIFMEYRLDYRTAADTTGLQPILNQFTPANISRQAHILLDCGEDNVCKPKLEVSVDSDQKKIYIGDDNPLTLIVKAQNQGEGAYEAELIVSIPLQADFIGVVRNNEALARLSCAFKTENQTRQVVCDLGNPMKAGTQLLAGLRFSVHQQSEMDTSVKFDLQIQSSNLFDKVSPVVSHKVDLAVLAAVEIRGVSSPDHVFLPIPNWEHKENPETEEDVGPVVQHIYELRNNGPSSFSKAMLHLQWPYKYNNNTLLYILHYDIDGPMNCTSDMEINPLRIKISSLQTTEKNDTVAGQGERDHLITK
# Sequence of integrin αvβ3 (P06756 891-1048 limits assumed): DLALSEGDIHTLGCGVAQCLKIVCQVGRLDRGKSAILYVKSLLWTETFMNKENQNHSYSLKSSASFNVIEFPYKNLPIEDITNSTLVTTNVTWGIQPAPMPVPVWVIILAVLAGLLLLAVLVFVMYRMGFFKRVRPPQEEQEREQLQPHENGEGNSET
# Sequence of integrin αvβ3 (P05106 27-788): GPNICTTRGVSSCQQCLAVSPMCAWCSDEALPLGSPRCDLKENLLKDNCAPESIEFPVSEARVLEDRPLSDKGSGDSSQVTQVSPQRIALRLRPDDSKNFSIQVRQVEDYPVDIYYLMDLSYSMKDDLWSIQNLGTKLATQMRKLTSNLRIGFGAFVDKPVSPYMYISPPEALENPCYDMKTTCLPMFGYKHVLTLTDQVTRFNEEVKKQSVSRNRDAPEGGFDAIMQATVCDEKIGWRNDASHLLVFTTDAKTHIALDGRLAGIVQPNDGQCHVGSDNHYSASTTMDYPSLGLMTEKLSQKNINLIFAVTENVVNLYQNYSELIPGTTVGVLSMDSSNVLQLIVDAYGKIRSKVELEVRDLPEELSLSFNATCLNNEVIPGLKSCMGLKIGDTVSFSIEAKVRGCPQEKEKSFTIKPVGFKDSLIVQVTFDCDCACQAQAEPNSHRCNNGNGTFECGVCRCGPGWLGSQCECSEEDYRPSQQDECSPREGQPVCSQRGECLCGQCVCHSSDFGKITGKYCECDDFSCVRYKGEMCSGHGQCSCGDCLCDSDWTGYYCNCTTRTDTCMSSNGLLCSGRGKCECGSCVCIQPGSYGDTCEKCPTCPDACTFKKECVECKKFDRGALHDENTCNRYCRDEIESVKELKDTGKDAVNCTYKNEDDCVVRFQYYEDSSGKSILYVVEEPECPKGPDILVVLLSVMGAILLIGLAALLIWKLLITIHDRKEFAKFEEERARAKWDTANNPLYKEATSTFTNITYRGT
molecule,measurement,setting,value
C=CC(=O)Nc1cc(Nc2nccc(-c3cn(C)c4ccccc34)n2)c(OC)cc1N(C)CCN(C)C [osimertinib],"cell viability (MTT), sensitivity to EGFR inhibitor",PC9 ErlR cells,osimertinib resistant
same,"cell viability, sensitivity to EGFR inhibitor",HCC827-ErlR,also resistant
C#Cc1cccc(Nc2ncnc3cc(OCCOC)c(OCCOC)cc23)c1 [erlotinib],"number of TAMs, particularly M2 type, in tumors",[1],higher number of TAMs
same,number of CTCs,[2]; erlotinib for 30 days vs pre-treatment,sharp increase in the number of CTCs
same,αvβ3 status of CTCs,[2]; following erlotinib treatment,vast majority of the CTCs detected following erlotinib treatment were αvβ3 positive
same,expression of integrin αvβ3 in tumors,HCC827 (β3−) xenograft,enriched in the erlotinib-resistant tumors compared to the vehicle group
same,tumor growth,[3],gained resistance
B1,clinical activity,solid tumors,showed clinical activity in some patients
same,antibody-dependent cell mediated cytotoxicity (ADCC),integrin αvβ3,reported to mediate antibody-dependent cell mediated cytotoxicity (ADCC) in vitro
